Laboratory results reported in patent US11639350B2, “Heteroaryldihydropyrimidine derivatives and methods of treating hepatitis B infections” (Janssen Pharmaceutica NV, priority 2018, dated 2023).

Key:
HepG2.2.15 cells = assay: Cytotoxicity determination in HepG2.2.15 cells (CCK-8); format: cell-based; settings: 6 days of compound treatment, CCK-8, highest concentration 100 μM
Summary of the method: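 CC50 is from CCK-8 absorbance (450 nm, 630 nm reference) after 2.5 h with reagent. Before that, compounds were applied for six days, top concentration 100 μM, eight threefold dilutions, one mid-course medium change, to stably HBV-integrated HepG2.2.15 cells plated at 5,000/well in 2% FBS.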

HBV = HBV inhibitory activity: HBV DNA in the culture medium of HepG2.2.15 cells by q-PCR; format: cell-based; settings: HepG2.2.15 cells, 6 days of compound treatment, HBV DNA in culture medium by q-PCR, highest concentration 10 μM; read-out: EC50
Summary of the method: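 Supernatant HBV DNA quantified by q-PCR after a 6-day compound exposure, with one mid-course medium change, of HepG2.2.15 cells (stably integrated HBV; 40,000 per well, 2% FBS). Eight-point 3-fold series topped at 10 μM for antiviral EC50; separate plates of 5,000 cells per well with 100 μM top give CC50.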

Structure (SMILES)	CC50 (HepG2.2.15 cells)	EC50 (HBV)
COC(=O)C1=C(C2CCN(S(=O)(=O)C3CC(C)(C(=O)O)C3)CC2)NC(c2nccs2)=NC1c1cccc(F)c1Br (stereo not drawn) [Compound 278C, (trans)-3-((4-(6-(2-bromo-3-fluorophenyl)-5-(methoxycarbonyl)-2-(thiazol-2-yl)-3,6-dihydropyrimidin-4-yl)piperidin-1-yl)sulfonyl)-1-methylcyclobutanecarboxylic Acid]	18.9 µM	0.045 µM
COC(=O)C1=C([C@H]2CC[C@H](NS(C)(=O)=O)CC2)NC(c2ncc(F)cc2F)=NC1c1ccc(F)c(F)c1Cl (stereo partly drawn) [Compound 298B]	13.2 µM	0.017 µM
COC(=O)C1=C(C2CCN(S(N)(=O)=O)CC2)NC(c2nccs2)=NC1c1ccc(F)c(F)c1Cl (stereo not drawn) [Compound 416B]	13.5 µM	0.006 µM
COC(=O)C1=C(C2CCN(S(=O)(=O)C3CC(C)(C(=O)O)C3)CC2)NC(c2nccs2)=NC1c1ccc(F)cc1C (stereo not drawn) [Compound 447C, (trans)-3-((4-(6-(4-Fluoro-2-methylphenyl)-5-(methoxycarbonyl)-2-(thiazol-2-yl)-3,6-dihydropyrimidin-4-yl)piperidin-1-yl)sulfonyl)-1-methylcyclobutanecarboxylic Acid]	48.2 µM	0.08 µM
CCOC(=O)C1=C(C2CCN(S(=O)(=O)CC3CC(C(=O)O)C3)CC2)NC(c2nccs2)=NC1c1ccc(F)c(F)c1Cl (stereo not drawn) [Compound 480Y, 3-(((4-(6-(2-Chloro-3,4-difluorophenyl)-5-(ethoxycarbonyl)-2-(thiazol-2-yl)-3,6-dihydropyrimidin-4-yl)piperidin-1-yl)sulfonyl)methyl)cyclobutanecarboxylic Acid]	10.2 µM	0.011 µM
CCOC(=O)C1=C(C2CCN(S(=O)(=O)C3CC(CC(=O)O)C3)CC2)NC(c2nccs2)=NC1c1ccc(F)c(F)c1Cl (stereo not drawn) [Compound 482B, 2-(3-((4-(6-(2-Chloro-3,4-difluorophenyl)-5-(ethoxycarbonyl)-2-(thiazol-2-yl)-3,6-dihydropyrimidin-4-yl)piperidin-1-yl)sulfonyl)cyclobutyl)acetic Acid]	11.3 µM	0.011 µM
